The target of the assay is T1, SIRT1 (Homo sapiens, UniProt Q96EB6).
T1 sequence (Q96EB6 1-747): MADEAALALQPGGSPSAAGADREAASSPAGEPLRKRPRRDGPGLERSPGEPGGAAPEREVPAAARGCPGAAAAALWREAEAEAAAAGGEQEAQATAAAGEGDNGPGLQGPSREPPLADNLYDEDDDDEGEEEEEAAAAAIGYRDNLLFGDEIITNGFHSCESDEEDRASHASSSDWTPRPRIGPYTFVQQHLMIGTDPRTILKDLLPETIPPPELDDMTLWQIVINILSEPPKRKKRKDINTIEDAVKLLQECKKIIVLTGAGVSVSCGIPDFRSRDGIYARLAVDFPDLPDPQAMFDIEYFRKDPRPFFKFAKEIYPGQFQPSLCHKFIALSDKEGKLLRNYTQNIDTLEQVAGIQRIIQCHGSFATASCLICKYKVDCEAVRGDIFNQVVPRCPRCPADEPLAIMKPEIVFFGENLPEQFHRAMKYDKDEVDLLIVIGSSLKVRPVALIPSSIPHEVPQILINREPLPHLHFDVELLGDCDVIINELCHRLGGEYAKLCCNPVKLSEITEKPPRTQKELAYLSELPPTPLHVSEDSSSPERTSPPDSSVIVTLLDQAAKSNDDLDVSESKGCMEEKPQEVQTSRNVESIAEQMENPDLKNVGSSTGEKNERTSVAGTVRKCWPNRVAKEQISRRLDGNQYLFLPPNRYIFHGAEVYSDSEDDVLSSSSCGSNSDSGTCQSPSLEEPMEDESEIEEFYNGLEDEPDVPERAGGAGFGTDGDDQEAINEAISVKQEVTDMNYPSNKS
The assay can be described thus: Mass spectrometry based SIRT1 deacetylase activation assay (acetylated p53-derived peptide substrate). It is filed as biochemical.

The mark [1] stands for this setting: 0.5 μM peptide substrate, 120 μM βNAD+, 10 nM SIRT1, 25 min at 25° C.
[2] abbreviates: 0.5 μM peptide substrate, 120 μM βNAD+, 10 nM SIRT1, 25 min at 25° C., read-out: EC1.5.
Setting [3] is: 0.5 μM peptide substrate, 120 μM βNAD+, 10 nM SIRT1, 25 minutes at 25° C.

Where two headings read alike, the source gives them in different places.

Take `O=C(Nc1ccc(OCC(O)CO)cc1)c1cccc2[nH]c(-c3cc(F)ccc3C(F)(F)F)nc12` (centres unmarked) [Compound 494]: the “Fold Act. (percent maximum fold activation)” value under setting [1] is given as “A (Fold activation >200%)”. In addition, under setting [2], the EC1.5 was under 1000 nM.
`O=C(Nc1ccccn1)c1cccc2[nH]c(-c3ccccc3OCCN3CCC(F)(F)C3)nc12` [Compound 615]: under setting [3], the EC1.5 entry is reported as “C (EC1.5 >25 uM)” and the “Fold Act. (percent maximum fold activation)” value is “B (Fold Activation <200%)”.
Consider `Cc1ncccc1-c1nc2c(C(=O)Nc3nc(CN4CCOCC4)cs3)cccc2[nH]1` [Compound 842], for which, under setting [3], the EC1.5 entry is given as “A (EC1.5<1.0 uM)” and the “Fold Act. (percent maximum fold activation)” value is recorded as “A (Fold activation >200%)”.
Take `O=C(Nc1nccs1)c1cccc2[nH]c(-c3cc(CN4CCCC4)ccc3C(F)(F)F)nc12` [Compound 871, 2-(5-(pyrrolidin-1-ylmethyl)-2-(trifluoromethyl)phenyl)-N-(thiazol-2-yl)-1H-benzo[d]imidazole-4-carboxamide]: under setting [3], the EC1.5 result was “B (EC1.5 1-25 uM)” and the “Fold Act. (percent maximum fold activation)” value was “A (Fold activation >200%)”.
Regarding `Cc1cc(NC(=O)c2cccc3[nH]c(-c4cc(F)ccc4C(F)(F)F)nc23)n(C)n1` [Compound 380], the EC1.5 result was “A (EC1.5<1.0 uM)” and the “Fold Act. (percent maximum fold activation)” value is recorded as “A (Fold activation >200%)”.
As to `CC1(C)CN(CCOc2ccccc2-c2nc3c(C(=O)Nc4nccs4)cccc3[nH]2)CCO1` [Compound 711], under setting [3], the EC1.5 entry is reported as “A (EC1.5<1.0 uM)” and the “Fold Act. (percent maximum fold activation)” value is “A (Fold activation >200%)”.
For the compound `O=C(Nc1nccs1)c1cccc2[nH]c(-c3ccccc3OCCN3CCNCC3)nc12` [Compound 483], the “Fold Act. (percent maximum fold activation)” value under setting [1] is reported as “A (Fold activation >200%)”. In addition, the EC1.5 under setting [2] is 1000 to 25000 nM.
Turning to `Cn1nc(C(F)(F)F)c(-c2nc3c(C(=O)Nc4cccnc4)cccc3[nH]2)c1Cl` [Compound 328], the EC1.5 result is “A (EC1.5<1.0 uM)” and the “Fold Act. (percent maximum fold activation)” value is “A (Fold activation >200%)”.
Consider `CN1CCN(c2cccc(-c3nc4c(C(=O)Nc5nccs5)cccc4[nH]3)c2)CC1` [Compound 527], for which, under setting [1], the “Fold Act. (percent maximum fold activation)” value is “A (Fold activation >200%)”. In addition, the EC1.5 under setting [2] is under 1000 nM.
Take `Cc1cnc(NC(=O)c2cccc3[nH]c(-c4ccc(N5CCOCC5)cc4C(F)F)nc23)s1` [Compound 552]: the “Fold Act. (percent maximum fold activation)” value under setting [1] is “A (Fold activation >200%)”. For the same compound, the EC1.5 under setting [2] is under 1000 nM.
For `O=C(Nc1cccnn1)c1cccc2[nH]c(-c3ccnn3-c3ccccc3)nc12` [Compound 467] the same measures were “A (Fold activation >200%)” and 1000 to 25000 nM.
On to `Cc1nnc(NC(=O)c2cccc3[nH]c(-c4cccc(C(F)(F)F)c4)nc23)s1` [Compound 232], for which the EC1.5 result is “B (EC1.5 1-25 uM)” and the “Fold Act. (percent maximum fold activation)” value was “A (Fold activation >200%)”.
For `Cc1ccc(NC(=O)c2cccc3[nH]c(-c4ccc(CN5CCCC5)cc4C(F)(F)F)nc23)cc1` [Compound 870, 2-(4-(pyrrolidin-1-ylmethyl)-2-(trifluoromethyl)phenyl)-N-p-tolyl-1H-benzo[d]imidazole-4-carboxamide], under setting [3], the EC1.5 result was “A (EC1.5<1.0 uM)” and the “Fold Act. (percent maximum fold activation)” value is on record as “A (Fold activation >200%)”.
Take `CS(=O)(=O)c1ccccc1-c1nc2c(C(=O)Nc3nccs3)cccc2[nH]1` [Compound 517]: under setting [1], the “Fold Act. (percent maximum fold activation)” value was “A (Fold activation >200%)”. Under setting [2], the EC1.5 fell in the range of 1000 to 25000 nM.
For `CC(C)(C)c1ccc(OCCN2CCOCC2)c(-c2nc3c(C(=O)Nc4ccccn4)cccc3[nH]2)c1` [Compound 548], the “Fold Act. (percent maximum fold activation)” value under setting [1] was “B (Fold Activation <200%)”. Further, under setting [2], the EC1.5 is under 1000 nM.
Turning to `O=C(Nc1cccc(CN2CCOCC2)n1)c1cccc2[nH]c(-c3ccccc3C(F)F)nc12` [Compound 817], under setting [3], the EC1.5 entry was “A (EC1.5<1.0 uM)” and the “Fold Act. (percent maximum fold activation)” value is “A (Fold activation >200%)”.
As to `O=C(Nc1nccs1)c1cccc2[nH]c(-c3ccc(F)cc3C(F)F)nc12` [Compound 559, 2-(2-(difluoromethyl)-4-fluorophenyl)-N-(thiazol-2-yl)-1H-benzo[d]imidazole-4-carboxamide], under setting [1], the “Fold Act. (percent maximum fold activation)” value is listed as “A (Fold activation >200%)”. Also, under setting [2], the EC1.5 was under 1000 nM.
As to `CS(=O)(=O)c1ccc(F)cc1-c1nc2c(C(=O)Nc3nccs3)cccc2[nH]1` [Compound 600], under setting [3], the EC1.5 result is recorded as “B (EC1.5 1-25 uM)” and the “Fold Act. (percent maximum fold activation)” value is “A (Fold activation >200%)”.
For `CC(C)(C)NCCOc1ccccc1-c1nc2c(C(=O)Nc3ccccn3)cccc2[nH]1` [Compound 616] the same measures were “B (EC1.5 1-25 uM)” and “A (Fold activation >200%)”.
With `O=C(Nc1nccs1)c1cccc2[nH]c(-c3ccc(OC[C@@H](O)CO)cc3C(F)(F)F)nc12` [Compound 745], under setting [3], the EC1.5 result was “A (EC1.5<1.0 uM)” and the “Fold Act. (percent maximum fold activation)” value is on record as “A (Fold activation >200%)”.
For `O=C(Nc1nccs1)c1cccc2[nH]c(-c3cc(N4CCCC4)ccc3C(F)(F)F)nc12` [Compound 664] the same measures were “C (EC1.5 >25 uM)” and “B (Fold Activation <200%)”.
Regarding `Cc1nc(NC(=O)c2cccc3[nH]c(-c4cc(F)ccc4C(F)(F)F)nc23)sc1C` [Compound 377], the EC1.5 entry is “A (EC1.5<1.0 uM)” and the “Fold Act. (percent maximum fold activation)” value was “A (Fold activation >200%)”.
For `O=C(Nc1nccs1)c1cccc2[nH]c(-c3cccc(OCCN4CCOCC4)c3)nc12` [Compound 347] the same measures were “B (EC1.5 1-25 uM)” and “A (Fold activation >200%)”.
As to `Cc1nc(NC(=O)c2cccc3[nH]c(-c4ccccc4C(F)(F)F)nc23)sc1C` [Compound 344], the EC1.5 entry was “A (EC1.5<1.0 uM)” and the “Fold Act. (percent maximum fold activation)” value is “A (Fold activation >200%)”.
On to `CCCN1CCc2cc(-c3nc4c(C(=O)Nc5cccnc5)cccc4[nH]3)ccc21` [Compound 569], for which the “Fold Act. (percent maximum fold activation)” value under setting [1] is recorded as “A (Fold activation >200%)”. For the same compound, the EC1.5 under setting [2] was 1000 to 25000 nM.
`O=C(Nc1cccnc1)c1cc(N2CCOCC2)cc2[nH]c(-c3ccccc3C(F)(F)F)nc12` [Compound 630]: under setting [3], the EC1.5 entry is recorded as “A (EC1.5<1.0 uM)” and the “Fold Act. (percent maximum fold activation)” value was “A (Fold activation >200%)”.
Taken in the same sequence, the figures for `CCCN1CCCc2ccc(-c3nc4c(C(=O)Nc5ncc(C)s5)cccc4[nH]3)cc21` [Compound 602] were “B (EC1.5 1-25 uM)” and “A (Fold activation >200%)”.
For the compound `O=C(Nc1ccncc1)c1cccc2[nH]c(-c3cc(F)ccc3C(F)(F)F)nc12` [Compound 316], the EC1.5 result was “A (EC1.5<1.0 uM)” and the “Fold Act. (percent maximum fold activation)” value is on record as “A (Fold activation >200%)”.
For `O=C(Nc1cccnc1)c1cccc2[nH]c(-c3ccnn3-c3ccccc3)nc12` [Compound 311] the same measures were “B (EC1.5 1-25 uM)” and “A (Fold activation >200%)”.
On to `C[C@@H]1CN(CCOc2ccccc2-c2nc3c(C(=O)Nc4nccs4)cccc3[nH]2)C[C@H](C)O1` [Compound 578], for which the “Fold Act. (percent maximum fold activation)” value under setting [1] is listed as “B (Fold Activation <200%)”. Further, the EC1.5 under setting [2] lay in the range of 1000 to 25000 nM.
`O=C(Nc1ccc(Cl)nc1)c1cccc2[nH]c(-c3cccc(C(F)(F)F)c3)nc12` [Compound 307]: the EC1.5 result is on record as “B (EC1.5 1-25 uM)” and the “Fold Act. (percent maximum fold activation)” value was “B (Fold Activation <200%)”.
Taken in the same sequence, the figures for `O=C(Nc1nccs1)c1cccc2[nH]c(-c3cc(F)ccc3C(F)(F)F)nc12` [Compound 302] were “A (EC1.5<1.0 uM)” and “A (Fold activation >200%)”.
Consider `Cn1cc(-c2nc3c(C(=O)Nc4nccs4)cccc3[nH]2)c(C(F)(F)F)n1` [Compound 477], for which, under setting [1], the “Fold Act. (percent maximum fold activation)” value is listed as “A (Fold activation >200%)”. For the same compound, under setting [2], the EC1.5 was under 1000 nM.
For `O=C(Nc1ccccc1OCC(O)CO)c1cccc2[nH]c(-c3ccccc3C(F)(F)F)nc12` (centres unmarked) [Compound 729], under setting [3], the EC1.5 result is on record as “B (EC1.5 1-25 uM)” and the “Fold Act. (percent maximum fold activation)” value was “A (Fold activation >200%)”.
Turning to `O=C(Nc1cccnc1)c1cncc2[nH]c(-c3cc(F)ccc3C(F)(F)F)nc12` [Compound 655], under setting [3], the EC1.5 entry was “A (EC1.5<1.0 uM)” and the “Fold Act. (percent maximum fold activation)” value is listed as “A (Fold activation >200%)”.
Turning to `O=C(Nc1nccs1)c1cccc2[nH]c(-c3ccoc3)nc12` [Compound 229], the EC1.5 result is “B (EC1.5 1-25 uM)” and the “Fold Act. (percent maximum fold activation)” value was “A (Fold activation >200%)”.
For `Cc1cc(NC(=O)c2cccc3[nH]c(-c4ccccc4C(F)(F)F)nc23)n(C)n1` [Compound 354] the same measures were “A (EC1.5<1.0 uM)” and “A (Fold activation >200%)”.

These data come from patent US8846947B2, “Benzimidazoles and related analogs as sirtuin modulators” (GlaxoSmithKline LLC, priority 2008, dated 2014).
